Experimental data reported in PubChem BioAssay (NCI).
Values joined by “and” are separate entries in the source; they are usually repeats but may differ in a detail not shown here. Equal entries are not always repeated.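 Cells were grown in 96-well plates and exposed to each compound for 48 hours at five concentrations; endpoints were interpolated linearly between bracketing concentrations, or set to the highest concentration if not reached. GI50 is the concentration that inhibits growth by half. TGI: total growth inhibition.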

Experiments:
Test in all cases: inhibition of tumour cell growth, NCI panel, 48 h
HOP-92 NSCLC = system: HOP-92 NSCLC
HL-60(TB) leukemia = system: HL-60(TB) leukemia
HCC-2998 colon = system: HCC-2998 colon
NCI-H23 lung = system: NCI-H23 lung
M14 melanoma = system: M14 melanoma
ACHN renal = system: ACHN renal
A498 renal = system: A498 renal
SW-620 colon = system: SW-620 colon
A549 NSCLC = system: A549 NSCLC
SF-539 CNS = system: SF-539 CNS

Row | Compound | TGI (HOP-92 NSCLC) | TGI (HL-60(TB) leukemia) [µM] | TGI (HCC-2998 colon) [µM] | TGI (NCI-H23 lung) [µM] | TGI (M14 melanoma) [µM] | TGI (ACHN renal) [µM] | TGI (A498 renal) [µM] | TGI (SW-620 colon) [µM] | TGI (A549 NSCLC) [µM] | TGI (SF-539 CNS) [µM] | GI50 (HOP-92 NSCLC) | GI50 (HL-60(TB) leukemia) | GI50 (HCC-2998 colon) [µM] | GI50 (NCI-H23 lung) [µM] | GI50 (M14 melanoma) [µM] | GI50 (ACHN renal) [µM] | GI50 (A498 renal) | GI50 (SW-620 colon) | GI50 (SF-539 CNS) | GI50 (A549 NSCLC) [µM]
1 | C/C(=N\N=C(N)N)c1sc(-c2nc(C)c(/C(C)=N/N=C(N)N)s2)nc1C | > 100 µM | 88.2 | > 100 | > 100 | > 100 | > 100 | > 100 | > 100 | > 100 | > 100 | – | – | – | – | – | – | – | – | – | –
2 | NC(=O)c1ccc(NC(=O)c2oc3ccccc3c2-c2cnn(-c3ccccc3)c2)cc1 | 6.46 µM | > 100 | > 100 | > 100 | > 100 | > 100 | > 100 | > 100 | – | > 100 | 1.69 µM | > 100 µM | > 100 | 6 | > 100 | 5.03 | 60.8 µM | > 100 µM | > 100 µM | –
3 | O=C(O)c1c(Cl)c(Cl)c(Cl)c(Cl)c1-c1c2cc(I)c(=O)c(I)c-2oc2c(I)c(O)c(I)cc12 | 68 µM and 71.6 µM | 85.2 | 70.8 | 125 | > 200 | > 200 | 64.2 | 79.1 | > 200 | 89.7 | 19.3 µM and 29.7 µM | 73 µM and 42.9 µM | 36.5 | 47 | 58.7 | 54.8 | 29.5 µM and 26.1 µM | 74.4 µM and 37.6 µM | 32.7 µM and 34.6 µM | 177
4 | COC(=N)/C(=C1\OC(N)=C(c2ccc(Cl)cc2)C1=O)c1ccc(Cl)cc1 | > 100 µM | > 100 | > 100 | > 100 | > 100 | > 100 | > 100 | > 100 | > 100 | > 100 | – | – | – | – | – | – | – | – | – | –
5 | O=C1CCCC2COc3ccc(O)c1c32 (stereo not given) | > 100 µM | > 100 | > 100 | > 100 | > 100 | > 100 | > 100 | – | > 100 | > 100 | – | – | – | – | – | – | – | – | – | –
6 | Cc1ccc(C)c(NC(=O)CCc2n[nH]c(=S)o2)c1 | > 100 µM | > 100 | > 100 | > 100 | > 100 | > 100 | > 100 | > 100 | > 100 | > 100 | – | – | – | – | – | – | – | – | – | –
7 | NC(=NC1C2CC3CC(C2)CC1C3)Nc1ccc(I)cc1 (stereo not given) | 5.21 µM | 27.2 | 3.61 | 10.7 | 5.04 | 9.45 | 6.77 | 11.6 | 14.2 | 15.5 | 1.6 µM | 6.43 µM | 1.77 | 2.77 | 2.08 | 2.92 | 2.47 µM | 2.64 µM | 4.16 µM | 3.44
8 | CCOC(=O)c1cc2cc([N+](=O)[O-])ccc2oc1=O | > 100 µM | > 100 | > 100 | > 100 | > 100 | > 100 | > 100 | > 100 | > 100 | > 100 | – | – | – | – | – | – | – | – | – | –
9 | O=C(NNc1ccc([N+](=O)[O-])cc1)C1OC(CO)C(O)C1O (stereo not given) | > 100 µM | > 100 | > 100 | > 100 | > 100 | > 100 | > 100 | 71.3 | > 100 | > 100 | – | – | – | – | – | – | – | – | – | –
10 | CCc1ccc(/C=C2/SC(=S)NC2=O)cc1 | 26.4 µM | 57 | 45.7 | 47 | 82.8 | > 100 | 36.4 | > 100 | > 80.2 | 56.6 | 3.41 µM | 21.6 µM | 18.8 | 18.6 | 24.3 | 27.2 | 6.15 µM | 27.2 µM | 21 µM | 20.8
11 | Clc1ccc(CCN2CCOCC2)c(Cl)c1 | > 100 µM | > 100 | > 100 | > 100 | > 100 | > 100 | > 100 | – | > 100 | > 100 | – | – | – | – | – | – | – | – | – | –
12 | C1CCN2CC34CC(CC5CCCN(C6CCCC3N6)C54)C2C1 (stereo not given) | > 100 µM | > 100 | > 100 | > 100 | > 100 | > 100 | > 100 | > 100 | > 100 | > 100 | – | – | – | – | – | – | – | – | – | –
13 | O=C1C=Cc2noc3cccc1c23 | 5.22 µM | 3.67 | 28.6 | 26 | 23.2 | 7.85 | 27.5 | 16.2 | 38.7 | 30.2 | – | – | – | – | – | – | – | – | – | –
14 | Cc1nc(Nc2ccc([N+](=O)[O-])cc2)sc1C(=O)/C=C/c1ccc(N(C)C)cc1 | > 100 µM | > 100 | > 100 | > 100 | – | > 100 | > 100 | > 100 | > 100 | > 100 | – | – | – | – | – | – | – | – | – | –
15 | N#CC(C#N)=C/C=C/c1cccc([N+](=O)[O-])c1 | 7.71 µM | 5.38 | 3.05 | 4.26 | 2.18 | 2.22 | 5.21 | 2.57 | 16.8 | 18.4 | 2.43 µM | 0.345 µM | 1.68 | 1.59 | 0.658 | 0.927 | 1.99 µM | 0.914 µM | 2.55 µM | 2.29
16 | N#CC(/C(=N\NC(N)=S)C(=O)NC1C2CC3CC(C2)CC1C3)c1ccc(Cl)cc1 (stereo not given) | > 100 µM | > 100 | > 100 | > 100 | > 100 | > 100 | > 100 | > 100 | > 100 | > 100 | – | – | – | – | – | – | – | – | – | –
17 | Cc1[nH]nc(C(=O)N/N=C/c2cccs2)c1N=NN(C)C | 55.1 µM | 89.4 | 26.6 | > 100 | > 100 | 13 | 91 | 93.5 | 52.7 | 36.5 | – | – | – | – | – | – | – | – | – | –
18 | COc1cc(C(N)=O)c(OC)c(OC)c1OC | > 100 µM | > 100 | > 100 | > 100 | > 100 | > 100 | > 100 | > 100 | > 100 | > 100 | – | – | – | – | – | – | – | – | – | –
